Results on two compounds are retold here after patent US20140235444A1, “SYNERGISTIC SUPRESSION OF GRASS SEEDHEAD PRODUCTION FROM APPLICATIONS OF AMINOCYCLOPYRACHLOR AND METSULFURON” (Dow AgroSciences LLC, priority 2013, published 2014).

The assay concerns X fescue in a Kentucky blue grass mix. Put plainly: Field trial, prevention or suppression of grass seedhead production, postemergence foliar application. Format: in vivo. As to conditions: 12 days after application, scale 0-100% vs untreated control. The method, then: Field trials were conducted with applications made to established pastures having X fescue in a Kentucky blue grass mix. The target plants were treated with postemergence foliar applications when they were approximately 6-10 inches tall. All treatments were applied using a randomized complete block trial design, with four replications per treatment.
Treatments consisted of aminocyclopyrachlor in acid form and metsulfuron-methyl, each in water and applied alone or in combination. Spray solutions were prepared using an appropriate amount of dilution to form a 1 liter (L) aqueous spray solution with active ingredients in single and two-way combinations. Formulated compounds were applied to the plant material with a backpack sprayer equipped with 8003 flat fan nozzles calibrated to deliver 20 gallons per acre (gal/acre) or 187 liters per hectare (L/ha) at a spray height of 15 inches (38.1 centimeters (cm)) above the grass.
The treated plots and control plots were rated blind at various intervals after application. […]
Colby's equation was used to determine the seedhead-suppressant effects expected from the mixtures, as described above. The results were measured at 12 days after the first application of the compositions. […]

Consider `Nc1nc(C2CC2)nc(C(=O)O)c1Cl` [Aminocyclopyrachlor, 6-amino-5-chloro-2-cyclopropylpyrimidine-4-carboxylic acid], for which the “Mean % seedhead suppression” value (Aminocyclopyrachlor alone, 70 g ae/ha) turned out to be 5.0%.

As to Metsulfuron-Methyl, the “Mean % seedhead suppression” value (Metsulfuron-Methyl alone, 13 g ae/ha) amounted to 80.0%.
